In US6388127B1, “Process for preparing cyclic thioamides” (Pfizer INC, priority 1999, dated 2002) one finds melting point data, which are given here for one compound.

What is called melting point is the temperature, or range, at which the solid turns liquid. `O=C1CSCCN1c1ccc(Cl)c(Cl)c1` [Example 1, 4-(3,4-Dichloro-phenyl)-thiomorpholin-3-one] came in with a melting point of 81 to 83 °C.
